Experimental data reported in US20250186408A1, “TREATMENT OF PHARMACORESISTANT EPILEPSY” (Katholieke Universiteit Leuven, priority 2021, published 2025).
≈ marks a conversion by molar mass, not a printed value. Read-outs that look alike come from different tables or passages of the source.

Experiments:
[1] = molecular target: T1, PDE4D2 (Homo sapiens, UniProt Q08499); assay: Enzymatic PDE4D2 Inhibitor; assay type: biochemical; conditions: for Emax: read-out: Max response; for IC50: read-out: RC50, result type IC50
T1 construct: purchased Signal Chem
Method: (§1) Enzyme preparations were sourced from various vendors-AChE (R&D Systems), COX1 and COX2 (BPS Bioscience), MAOA (Sigma), PDE3A and PDE4D2 (Signal Chem). AChE: enzyme and test compound were pre-incubated for 15 min at RT before substrate addition. Acetylthiocholine and DTNB were added and incubated at RT for 30 min. Signal was detected by measuring absorbance at 405 nm. COX1 and COX2: enzyme stocks were diluted in assay buffer (40 mM Tris-HCl, 1×PBS, 0.5 mM Phenol, 0.01% Tween 20 and 10 nM Hematin) and allowed to equilibrate with compounds at RT for 30 min (binding incubation). Arachidonic acid (1.7 μM) and Ampliflu Red (2.5 μM) were prepared and dispended into a reaction plate. Plates were read immediately on a fluorimeter with the emission detection at 590 nm and excitation wavelength 544 nm. MAOA: enzyme and test compound were pre-incubated for 15 min at 37° C. before substrate addition. The reaction was initiated by addition of kynuramine and incubated at 37° C. for 30 min. The reaction was terminated by addition of NaOH. The amount of 4-hydroquinoline formed was determined through spectrofluorometric readout with the emission detection at 380 nm and excitation wavelength 310 nm. PDE3A and PDE4D2: enzyme and test compound were pre-incubated for 15 min at RT before substrate addition. cAMP substrate (at a concentration equal to EC80) was added and incubated at RT for 30 min. Enzyme reaction was terminated by addition of 9 mM IBMX. Signal was detected using the HitHunter® cAMP detection kit. Microplates were transferred to a PerkinElmer Envision™ instrument and read out as described for each assay. […] For enzyme activity assays, percentage inhibition was calculated using the following equation: […]

[2] = Aqueous solubility; assay type: physicochemical
Text: In vitro ADME profiling of compounds was done by Eurofins Panlabs Inc (St Charles, MO, USA) using their ADME-Tox service (Cat Ref P375, Tier 1 ADME Panel). […] (28). The atom-based log P calculation method, called OsirisP, uses as an increment system and adds contributions of every atom based on its atom type. The prediction engine distinguishes a total of 368 atom types and was optimized using a training set of more than 5000 molecules with experimentally determined log P values. The free prediction engine has proven to outperform many alternative calculation methods (29).
SGF, SIF and PBS buffers were prepared as follows: 34.2 mM NaCl, 84.7 mM HCl, 3.2 g/L pepsin (pH 2) for SGF, 50 mM KH2PO4, 38 mM NaOH, 10 g/L pancreatin (pH 7.5) for SIF and 137 mM NaCl, 2.7 mM KCl, 8.1 mM Na2HPO4 and 1.5 mM KH2PO4 (pH 7.4) for PBS. Test compounds were prepared at 200 μM concentrations in the corresponding buffer from a 10 mM stock solution (final solvent concentration of 2% DMSO). Buffer samples were mixed thoroughly followed by a 24 h incubation at room temperature. Samples were centrifuged and the supernatant was used for HPLC analysis. A calibration standard of the test compound was prepared at 200 μM in methanol/water (3:2 v/v) from the stock solution on the day of the analysis. Metoprolol, rifampicin, ketoconazole, phenytoin, haloperidol, simvastatin, diethylstilbestrol and tamoxifen were included in each assay. Aqueous solubility (μM) was determined by comparing peak areas.

[3] = molecular target: T2, AChE (Homo sapiens, UniProt P22303); assay: Enzymatic AChE Inhibitor; assay type: biochemical; conditions: for Emax: read-out: Max response; for IC50: read-out: RC50, result type IC50
T2 construct: purchased R&D Systems
Method: as §1

[4] = molecular target: T3, ADRA2A (Homo sapiens, UniProt P08913); assay: cAMP ADRA2A Antagonist; conditions: for Emax: read-out: Max response
T3 sequence (P08913 1-465): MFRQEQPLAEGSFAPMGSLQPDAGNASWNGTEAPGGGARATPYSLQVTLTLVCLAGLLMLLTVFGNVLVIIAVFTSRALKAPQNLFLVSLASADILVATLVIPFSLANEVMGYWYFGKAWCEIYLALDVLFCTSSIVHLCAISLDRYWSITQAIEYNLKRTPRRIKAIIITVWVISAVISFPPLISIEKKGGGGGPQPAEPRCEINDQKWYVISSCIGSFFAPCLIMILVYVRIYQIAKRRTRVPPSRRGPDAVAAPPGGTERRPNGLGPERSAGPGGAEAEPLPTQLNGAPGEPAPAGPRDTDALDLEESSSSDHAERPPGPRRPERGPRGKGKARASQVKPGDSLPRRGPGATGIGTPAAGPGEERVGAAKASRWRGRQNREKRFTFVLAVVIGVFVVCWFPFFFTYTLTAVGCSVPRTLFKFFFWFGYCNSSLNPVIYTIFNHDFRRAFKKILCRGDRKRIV
Method: (§2) In vitro pharmacological profiling of compounds was done against 78 functional assays for 47 common off-targets (30) by Eurofins DiscoverX Corporation (Fremont, CA, USA) using their SAFETYscan E/IC50 ELECT service (Cat Ref 87-1003DR, Safety47 Panel Dose Response). […] Compounds were tested in a range of 10 concentrations, following a 3-fold serial dilution, starting from 10 μM.
cAMP Hunter cell lines were expanded from freezer stocks. Prior to testing, cells were seeded in a total volume of 20 μL into white walled 384-well microplates and incubated at 37° C. cAMP modulation was determined using the DiscoverX HitHunter cAMP XS+ assay. For Gs agonist determination, cells were incubated with sample to induce response. For Gi agonist determination, cells were incubated with sample in the presence of EC80 forskolin to induce response. For both conditions, media was aspirated from cells and replaced with 15 μL 2:1 HBSS/10 mM HEPES:cAMP XS+ Ab reagent. Intermediate dilution of sample stocks was performed to generate 4× sample in assay buffer (containing 4×EC80 forskolin in the case of antagonist determination). 5 μL of 4× sample was added to cells and incubated at 37° C. or room temperature (RT) for 30 or 60 min. Final assay vehicle concentration was 1%. For antagonist determination, cells were pre-incubated with sample followed by agonist challenge at the EC80 concentration. Media was aspirated from cells and replaced with 10 μL 1:1 HBSS/HEPES:cAMP XS+ Ab reagent. 5 μL of 4× compound was added to the cells and incubated at 37° C. or RT for 30 min. 5 μL of 4×EC80 agonist was added to the cells and incubated at 37° C. or RT for 30 or 60 min. For Gi coupled GPCRs, EC80 forskolin was included. […] Microplates were read following signal generation with a PerkinElmer Envision™ instrument for chemiluminescent signal detection. Compound activity was analyzed using CBIS data analysis suite (ChemInnovation, CA). For Gs agonist mode assays, percentage activity was calculated using the following equation:

[5] = molecular target: GABAA (Homo sapiens, UniProt P14867+P18507+P47870); assay: Ion Channel GABAA Opener; assay type: cell-based; conditions: read-out: Max response
[6] = molecular target: T4, HTR1A (Homo sapiens, UniProt P08908); assay: cAMP HTR1A Agonist; conditions: for Emax: read-out: Max response
T4 sequence (P08908 1-422): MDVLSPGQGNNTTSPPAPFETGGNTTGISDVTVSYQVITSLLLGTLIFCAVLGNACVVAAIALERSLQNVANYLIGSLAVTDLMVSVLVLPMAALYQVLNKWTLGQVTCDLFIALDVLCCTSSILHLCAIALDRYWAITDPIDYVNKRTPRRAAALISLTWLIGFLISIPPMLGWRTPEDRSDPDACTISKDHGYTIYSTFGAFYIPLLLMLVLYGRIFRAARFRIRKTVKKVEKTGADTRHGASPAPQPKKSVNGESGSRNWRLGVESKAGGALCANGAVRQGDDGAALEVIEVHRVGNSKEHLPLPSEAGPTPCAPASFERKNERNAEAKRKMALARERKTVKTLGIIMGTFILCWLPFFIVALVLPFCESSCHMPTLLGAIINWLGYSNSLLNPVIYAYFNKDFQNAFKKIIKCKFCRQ
Method: as §2
cAMP Hunter cell lines were expanded from freezer stocks. Prior to testing, cells were seeded in a total volume of 20 μL into white walled 384-well microplates and incubated at 37° C. cAMP modulation was determined using the DiscoverX HitHunter cAMP XS+ assay. For Gs agonist determination, cells were incubated with sample to induce response. For Gi agonist determination, cells were incubated with sample in the presence of EC80 forskolin to induce response. For both conditions, media was aspirated from cells and replaced with 15 μL 2:1 HBSS/10 mM HEPES:cAMP XS+ Ab reagent. Intermediate dilution of sample stocks was performed to generate 4× sample in assay buffer (containing 4×EC80 forskolin in the case of antagonist determination). 5 μL of 4× sample was added to cells and incubated at 37° C. or room temperature (RT) for 30 or 60 min. Final assay vehicle concentration was 1%. For antagonist determination, cells were pre-incubated with sample followed by agonist challenge at the EC80 concentration. Media was aspirated from cells and replaced with 10 μL 1:1 HBSS/HEPES:cAMP XS+ Ab reagent. 5 μL of 4× compound was added to the cells and incubated at 37° C. or RT for 30 min. 5 μL of 4×EC80 agonist was added to the cells and incubated at 37° C. or RT for 30 or 60 min. For Gi coupled GPCRs, EC80 forskolin was included. […] Microplates were read following signal generation with a PerkinElmer Envision™ instrument for chemiluminescent signal detection. Compound activity was analyzed using CBIS data analysis suite (ChemInnovation, CA).

[7] = molecular target: T5, COX1 (Homo sapiens, UniProt P23219); assay: Enzymatic COX1 Inhibitor; assay type: biochemical; conditions: for Emax: read-out: Max response; for IC50: read-out: RC50, result type IC50
T5 construct: purchased BPS Bioscience
Method: as §1

[8] = molecular target: HTR2B (Homo sapiens, UniProt P41595); assay: Calcium Flux HTR2B Agonist; conditions: for Emax: read-out: Max response
Method: In vitro pharmacological profiling of compounds was done against 78 functional assays for 47 common off-targets (30) by Eurofins DiscoverX Corporation (Fremont, CA, USA) using their SAFETYscan E/IC50 ELECT service (Cat Ref 87-1003DR, Safety47 Panel Dose Response). […] Compounds were tested in a range of 10 concentrations, following a 3-fold serial dilution, starting from 10 μM. The assays were performed utilizing the PathHunter enzyme fragment complementation (EFC) technology, FLIPR®-based cellular screening assays, and KINOMEscan kinase binding assays.
Prior to testing, cells (10,000 cells/well) were expanded from freezer stocks and seeded into a total volume of 50 μL into black walled, clear-bottom, Poly-D-lysine coated 384-well microplates and incubated at 37° C. […] Assays were performed in 1× dye loading buffer consisting of 1× Dye (DiscoverX, Calcium No Wash^PLUS kit, Catalog No. 90-0091), 1× Additive A and 2.5 mM Probenecid in HBSS/20 mM HEPES. Probenecid was prepared fresh. Prior to testing, media was aspirated from cells and replaced with 25 μL dye loading buffer. Cells were incubated for 45 min at 37° C. and then 20 min at RT. For agonist determination, 25 μL of 2× compound in HBSS/20 mM HEPES was added using a FLIPR Tetra (MDS). For antagonist determination, cells were pre-incubated with sample followed by agonist challenge at the EC80 concentration. 25 μL of 2× sample was added and cells were incubated for 30 min at RT in the dark to equilibrate plate temperature. After incubation, antagonist determination was initiated by addition of 25 μL of 1× compound with 3×EC80 agonist using FLIPR. For both agonist and antagonist formats, activity was measure on a FLIPR Tetra (MDS). Calcium mobilization was monitored for 2 min with a 5 sec baseline read.
FLIPR read—Area under the curve, was calculated for the entire 2 min read. Compound activity was analysed using CBIS data analysis suite (ChemInnovation, CA).

[9] = aqueous buffer, kinetic from dmso stock, PBS pH 7.4, tested at 200 μM, 24 h room temperature, read-out: aqueous solubility PBS (pH 7.4)
[10] = fassgf or other biorelevant, kinetic from dmso stock, simulated intestinal fluid pH 7.5, tested at 200 μM, read-out: aqueous solubility simulated intestinal fluid
[11] = kinetic from dmso stock, simulated gastric fluid pH 2, tested at 200 μM, read-out: aqueous solubility simulated gastric fluid

T5 sequence (P23219 24-599): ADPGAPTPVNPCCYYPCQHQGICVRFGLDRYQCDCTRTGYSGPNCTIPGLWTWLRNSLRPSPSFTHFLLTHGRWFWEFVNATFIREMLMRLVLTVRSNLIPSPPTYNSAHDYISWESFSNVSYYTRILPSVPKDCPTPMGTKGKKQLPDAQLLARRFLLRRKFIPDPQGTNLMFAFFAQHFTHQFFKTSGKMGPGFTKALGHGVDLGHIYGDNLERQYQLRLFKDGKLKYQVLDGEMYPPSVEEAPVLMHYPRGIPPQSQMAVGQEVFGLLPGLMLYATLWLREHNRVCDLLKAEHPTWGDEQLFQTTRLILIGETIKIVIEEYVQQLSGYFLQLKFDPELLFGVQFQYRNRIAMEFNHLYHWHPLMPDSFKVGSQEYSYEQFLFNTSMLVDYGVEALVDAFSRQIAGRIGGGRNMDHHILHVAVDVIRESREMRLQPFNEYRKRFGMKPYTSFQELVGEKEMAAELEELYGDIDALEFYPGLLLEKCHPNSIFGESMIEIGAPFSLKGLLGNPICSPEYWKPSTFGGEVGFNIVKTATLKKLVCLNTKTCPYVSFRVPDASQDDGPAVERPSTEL
T1 sequence (Q08499 303-809 limits assumed): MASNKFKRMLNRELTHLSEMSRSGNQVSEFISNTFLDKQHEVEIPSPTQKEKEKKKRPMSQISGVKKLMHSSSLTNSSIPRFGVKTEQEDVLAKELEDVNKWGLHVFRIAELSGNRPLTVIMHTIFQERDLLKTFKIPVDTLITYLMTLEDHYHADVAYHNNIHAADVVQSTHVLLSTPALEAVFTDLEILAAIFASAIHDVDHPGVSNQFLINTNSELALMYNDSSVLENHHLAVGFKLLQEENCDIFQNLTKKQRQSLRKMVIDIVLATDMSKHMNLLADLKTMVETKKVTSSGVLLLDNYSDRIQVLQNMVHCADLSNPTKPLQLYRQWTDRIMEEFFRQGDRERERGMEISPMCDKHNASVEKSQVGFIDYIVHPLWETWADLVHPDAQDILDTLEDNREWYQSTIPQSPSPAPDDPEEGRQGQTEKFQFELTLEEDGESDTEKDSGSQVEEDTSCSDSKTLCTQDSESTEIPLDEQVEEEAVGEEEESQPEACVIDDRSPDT
T2 sequence (P22303 32-614): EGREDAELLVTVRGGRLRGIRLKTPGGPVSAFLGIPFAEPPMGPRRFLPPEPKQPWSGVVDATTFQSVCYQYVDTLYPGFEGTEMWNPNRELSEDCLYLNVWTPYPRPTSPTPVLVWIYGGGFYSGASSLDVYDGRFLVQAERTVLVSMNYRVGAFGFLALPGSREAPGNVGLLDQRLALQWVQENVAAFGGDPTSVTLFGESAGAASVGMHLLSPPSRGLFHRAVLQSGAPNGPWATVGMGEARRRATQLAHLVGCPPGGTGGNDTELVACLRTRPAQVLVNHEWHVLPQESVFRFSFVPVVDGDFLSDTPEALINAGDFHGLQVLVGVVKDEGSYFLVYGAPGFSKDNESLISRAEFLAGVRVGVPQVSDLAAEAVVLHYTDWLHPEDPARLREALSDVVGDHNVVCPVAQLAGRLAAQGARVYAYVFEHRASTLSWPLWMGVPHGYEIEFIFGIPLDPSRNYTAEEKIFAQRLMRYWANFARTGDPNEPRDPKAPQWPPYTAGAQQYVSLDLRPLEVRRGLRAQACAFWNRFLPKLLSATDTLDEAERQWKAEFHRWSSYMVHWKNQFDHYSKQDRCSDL
HTR2B, sequence (P41595 whole entry): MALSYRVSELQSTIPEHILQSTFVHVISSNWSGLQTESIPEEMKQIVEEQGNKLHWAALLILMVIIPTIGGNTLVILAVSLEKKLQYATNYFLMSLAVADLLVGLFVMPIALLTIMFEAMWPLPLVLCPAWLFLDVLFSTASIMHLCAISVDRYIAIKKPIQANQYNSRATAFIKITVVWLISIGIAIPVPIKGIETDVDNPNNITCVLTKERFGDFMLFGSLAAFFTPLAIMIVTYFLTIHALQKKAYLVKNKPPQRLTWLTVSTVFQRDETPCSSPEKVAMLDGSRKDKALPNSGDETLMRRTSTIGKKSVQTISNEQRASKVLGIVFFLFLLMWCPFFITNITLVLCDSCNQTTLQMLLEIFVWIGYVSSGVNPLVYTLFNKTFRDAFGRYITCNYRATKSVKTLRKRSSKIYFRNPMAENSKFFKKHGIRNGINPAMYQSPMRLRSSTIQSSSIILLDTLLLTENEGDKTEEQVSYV
GABAA, sequence (P14867 28-456): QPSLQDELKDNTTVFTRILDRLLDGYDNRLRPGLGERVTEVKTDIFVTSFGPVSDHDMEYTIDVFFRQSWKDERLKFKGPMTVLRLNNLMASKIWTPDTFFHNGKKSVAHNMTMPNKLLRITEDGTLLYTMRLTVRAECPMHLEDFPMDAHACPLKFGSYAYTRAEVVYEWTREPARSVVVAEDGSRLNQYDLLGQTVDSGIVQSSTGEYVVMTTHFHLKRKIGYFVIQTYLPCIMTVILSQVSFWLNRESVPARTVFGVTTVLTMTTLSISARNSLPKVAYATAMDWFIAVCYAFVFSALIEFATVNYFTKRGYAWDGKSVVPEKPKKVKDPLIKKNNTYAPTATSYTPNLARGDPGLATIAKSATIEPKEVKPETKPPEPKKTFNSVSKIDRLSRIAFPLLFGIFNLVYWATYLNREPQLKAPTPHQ
GABAA, sequence (P47870 26-512): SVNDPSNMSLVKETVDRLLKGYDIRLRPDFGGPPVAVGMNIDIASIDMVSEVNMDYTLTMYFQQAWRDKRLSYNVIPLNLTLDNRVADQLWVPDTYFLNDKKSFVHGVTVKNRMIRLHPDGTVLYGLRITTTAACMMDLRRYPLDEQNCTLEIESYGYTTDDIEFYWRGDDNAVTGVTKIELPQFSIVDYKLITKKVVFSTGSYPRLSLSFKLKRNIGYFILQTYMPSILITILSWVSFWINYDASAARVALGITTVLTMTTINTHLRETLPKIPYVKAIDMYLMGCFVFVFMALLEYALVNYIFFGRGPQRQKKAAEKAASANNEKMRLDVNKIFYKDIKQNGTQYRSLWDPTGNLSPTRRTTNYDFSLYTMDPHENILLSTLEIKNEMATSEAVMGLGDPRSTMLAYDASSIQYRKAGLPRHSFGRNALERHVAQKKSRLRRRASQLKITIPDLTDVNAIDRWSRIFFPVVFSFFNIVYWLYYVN
GABAA, sequence (P18507 40-475): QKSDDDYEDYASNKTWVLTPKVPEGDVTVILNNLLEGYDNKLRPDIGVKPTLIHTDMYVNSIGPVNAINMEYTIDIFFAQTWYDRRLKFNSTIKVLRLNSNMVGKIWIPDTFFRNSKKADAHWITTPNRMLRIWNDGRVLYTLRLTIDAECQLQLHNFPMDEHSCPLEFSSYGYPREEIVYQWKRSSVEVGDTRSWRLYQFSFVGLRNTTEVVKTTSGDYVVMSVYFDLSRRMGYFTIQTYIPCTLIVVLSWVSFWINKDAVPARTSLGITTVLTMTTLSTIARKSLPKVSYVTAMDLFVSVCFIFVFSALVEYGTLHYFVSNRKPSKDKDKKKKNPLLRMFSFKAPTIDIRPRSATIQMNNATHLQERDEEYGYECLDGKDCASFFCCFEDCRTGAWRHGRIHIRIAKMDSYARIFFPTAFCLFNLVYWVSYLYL

Row | Compound | Emax ([1]; Enzymatic PDE4D2 Inhibitor) [%] | IC50 ([1]; Enzymatic PDE4D2 Inhibitor) [µM] | solubility at 24 h ([2]; PBS pH 7.4, tested at 200 μM, 24 h room temperature, read-out: aqueous solubility PBS (pH 7.4)) [µM] | solubility at 24 h [2, 9] [µM] | solubility at 24 h [2, 10] [µM] | solubility at 24 h [2, 11] [µM] | Emax ([3]; Enzymatic AChE Inhibitor) [%] | IC50 ([3]; Enzymatic AChE Inhibitor) [µM] | IC50 [4] [µM] | Emax [4] [%] | Emax [5] [%] | EC50 [6] [µM] | Emax [6] [%] | Emax ([7]; Enzymatic COX1 Inhibitor) [%] | IC50 ([7]; Enzymatic COX1 Inhibitor) [µM] | EC50 [8] [µM] | Emax [8] [%] | Emax [1] [%] | Emax [3] [%] | Emax [7] [%]
1 | Clc1cccc(C#Cc2n[nH]c3ncccc23)c1 [Compound 10.1, 3-((3-chlorophenyl)ethynyl)-1H-pyrazolo[3,4-b]pyridine] | 2.7 | > 10 | <0.1 | < 0.1 | 26.7 (≈ 6.77 µg/mL) | 26.7 (≈ 6.77 µg/mL) | 1.3 | > 10 | > 10 | 0 | 1.3 | > 10 | 9.1 | 0 | > 10 | > 10 | 0 |  |  | 
2 | CC(C)(C)c1ccc(C#CC(O)c2ccccc2)cc1 (racemic) [Compound 3.3, rac-3-(4-(tert-butyl)phenyl)-1-phenylprop-2-yn-1-ol] |  | > 10 |  | 17.7 (≈ 4.68 µg/mL) | 102 (≈ 27.1 µg/mL) | 24.5 (≈ 6.48 µg/mL) |  | > 10 | > 10 | 13 | 0 | > 10 | 0 |  | > 10 | > 10 | 0 | 0 | 3.8 | 9.9
